Experimental data as given in patent publication US11173178B2, “Liposomes for drug delivery and methods for preparation thereof” (priority 2008, dated 2021).

Experiment: Stability of oxaliplatin in hydration solution (UV, absorbance at 254 nm)
Format: physicochemical
Method: Oxaliplatin was dissolved in a hydration solution containing 10% sucrose and 1 mM Calcium gluconate (10 mg/ml). Sucrose was added to obtain an osmolarity approximately corresponding to physiological salt concentration. Stability of oxaliplatin in the hydration solution was followed by UV measurement. Samples were taken continually during storage at room temperature. Sample concentration measured was 0.1 mg/ml oxaliplatin. In order to follow the oxaliplatin stability a scan was performed from 200-350 nm (FIG. 1) and the absorbance at 254 nm was compared during storage (FIG. 2). Major changes in absorbance at 254 nm are usually related to oxaliplatin decomposition, which can easily be observed by dissolving oxaliplatin in solutions containing hydroxide and/or chloride ions.

In the case of `O=C1[O][Pt]2([NH][C@@H]3CCCC[C@H]3[NH]2)[O]C1=O` [Oxaliplatin, oxaliplatin], the “decomposition during storage (absorbance at 254 nm)” value (10% sucrose solution containing 1 mM calcium gluconate, room temperature, at least 35 days) is reported as “practically no decomposition” and the “absorbance at 254 nm with common buffer components” value (phosphate, citrate, acetate, ethanolamine (data not shown)) is reported as “decrease the absorbance at 254 nm”.
